6 molecules from ChEMBL document CHEMBL5365512, “Hetero-tricyclic Compounds as KRAS Inhibitors for Treating Cancer” (ACS Med Chem Lett, 2023) can be followed below.

Assay [1] has as its target GTPase KRas (Homo sapiens, UniProt P01116, G12V). Kind of assay: Inhibition of KRAS G12V mutant (unknown origin) assessed as inhibition of SOS1 mediated nucleotide exchange of bodipy-GDP for GppNHp incubated for 3 hrs by fluorescence based analysis.
The target of assay [2] is T1, GTPase KRas (Homo sapiens, UniProt P01116, G12D). Kind of assay: Inhibition of KRAS G12D mutant (unknown origin) assessed as inhibition of SOS1 mediated nucleotide exchange of bodipy-GDP for GppNHp incubated for 4 hrs by fluorescence based analysis.
T1 sequence (P01116 whole entry G12D): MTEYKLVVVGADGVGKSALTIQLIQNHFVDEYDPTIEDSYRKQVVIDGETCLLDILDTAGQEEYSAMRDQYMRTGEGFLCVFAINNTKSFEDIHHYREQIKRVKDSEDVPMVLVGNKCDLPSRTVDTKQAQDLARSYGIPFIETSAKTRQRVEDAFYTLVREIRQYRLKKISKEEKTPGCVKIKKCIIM
Assay [3] concerns the target T1, GTPase KRas. Kind of assay: Inhibition of KRAS G12D mutant in human HPAF-II cells assessed as reduction in ERK phosphorylation by Western blot analysis. It counts as cell-based.

Sequence of GTPase KRas (Homo sapiens, UniProt P01116, G12V) (P01116 whole entry G12V): as the sequence (P01116 whole entry G12D) above, with D12V counted along it

What is called IC50 is the concentration that gives 50% inhibition. Turning to `C[C@H](Oc1nc2c(F)c(-c3cccc(Cl)c3Cl)c(CCC#N)cc2c2c1c(=O)c(N1CCCC1=O)cn2[C@@H]1[C@@H]2CN[C@H]1C2)[C@H]1CCCN1C`, the IC50 on GTPase KRas [1] and at GTPase KRas [2] was at most 100 nM in each case.

With `Cc1cc2c(nc(O[C@@H](C)[C@H]3CCCN3C)c3c(=O)ccn([C@@H]4[C@@H]5CN[C@H]4C5)c32)c(F)c1-c1cccc2c1C(C#N)CCC2` (some centres not stated), the IC50 on GTPase KRas [1], at GTPase KRas [3] and on GTPase KRas [2] was at most 100 nM each time.

As for `C[C@@H](Oc1nc2c(F)c(-c3cc(O)cc4ccccc34)c(CCC#N)cc2c2c1CCCN2C1C2CNC1C2)[C@H]1CCCN1C` (some centres not stated), the IC50 on GTPase KRas [1], at GTPase KRas [3] and on GTPase KRas [2] was at most 100 nM each time.

Regarding `C[C@H](Oc1nc2c(F)c(-c3cccc4ccc(F)cc34)c(CCC#N)cc2c2c1NC(=O)CN2C1C2CNC1C2)[C@@H]1CCCN1C` (some centres not stated), the IC50 on GTPase KRas [1], on GTPase KRas [3] and at GTPase KRas [2] was at most 100 nM each time.

Take `C[C@H](Oc1nc2c(F)c(-c3c[nH]c4ccccc34)c(CCC#N)cc2c2c1NC(=O)CN2C1C2CNC1C2)[C@@H]1CCCN1C` (some centres not stated): the IC50 at GTPase KRas [1], at GTPase KRas [3] and on GTPase KRas [2] was at most 100 nM throughout.

In the case of `C[C@H](Oc1nc2c(F)c(-c3cc(O)cc4ccc(F)cc34)c(CCC#N)cc2c2c1NC(=O)CN2C1C2CNC1C2)[C@@H]1CCCN1C` (some centres not stated), the IC50 at GTPase KRas [1], at GTPase KRas [3] and on GTPase KRas [2] was at most 100 nM in each case.
